For series [1], the target named is T1, D-lactate dehydrogenases LdhTi (Thermodesulfatator indicus, UniProt F8A9V0). The series can be described thus: Enzymatic characteristic identification (substrate spectrum) of D-lactate dehydrogenase LdhTi, NADH/NAD at 340 nm. The class given is biochemical. The conditions noted are these: for whether LdhTi catalyzes the substrate (in words) / Km / kcat: 50 mM phosphate buffer pH 7.0, 0.2 mM NADH or NAD+, 37° C.; for Km / kcat: substrate of purified LdhTi, “—” = enzyme has no activity for the substrate. As for the experimental part:
A reaction system is consisting of: 50 mM phosphate buffer solution (pH 7.0), 0.2 mM NADH or NAD^+ as coenzyme, a suitable amount of D-lactate dehydrogenases LdhTi and substrates with different concentrations, reacted at 37° C. An enzyme activity determination method is to determine oxidization of NADH or reduction of NAD at ultraviolet wavelength of 340 nm, wherein one enzyme activity unit is defined as the enzyme amount needed for oxidizing or reducing 1 μmoL NADH or NAD in one minute.

Substrate in series [2]: C[C@@H](O)C(=O)O
The series is described as above. Format: biochemical, Thermodesulfatator indicus. The conditions noted are these: other: substrate of purified LdhTi, 50 mM phosphate buffer pH 7.0, 0.2 mM NADH or NAD+, 37° C., “—” = enzyme has no activity for the substrate.

Substrate in series [3]: CC(=O)C(=O)O
Described as above. The class given is biochemical, Thermodesulfatator indicus. The conditions noted are these: other: substrate of purified LdhTi, 50 mM phosphate buffer pH 7.0, 0.2 mM NADH or NAD+, 37° C., “—” = enzyme has no activity for the substrate.

Substrate in series [4]: O=C(O)C(=O)Cc1ccccc1
The series can be described thus: purified protein, by the assay type. The note with it: other: substrate of purified LdhTi, 50 mM phosphate buffer pH 7.0, 0.2 mM NADH or NAD+, 37° C., “—” = enzyme has no activity for the substrate.

The target in series [5] is T1, D-lactate dehydrogenases LdhTi. The experiment in a line: Determination of the optimal reaction pH value of D-lactate dehydrogenases LdhTi. The class given is biochemical. The conditions noted are these: 37° C., 20 mM pyruvic acid, 0.2 mM NADH, pH range 3.0-11.0, FIG. 3. As to the method: An enzyme activity determination method is to determine change in NADH at ultraviolet wavelength of 340 nm, and one enzyme activity unit is defined as the enzyme amount needed for oxidizing 1 μmoL of NADH in one minute. At 37° C., by using 20 mM pyruvic acid as a substrate and 0.2 mM NADH as a coenzyme, the change of enzyme activity of the D-lactate dehydrogenase within a pH range of 3.0-11.0 was determined. A buffer system is consisting of: 50 mM citric acid-sodium citrate buffer solution with pH of 3.0-7.0; 50 mM phosphate buffer solution with pH of 7.0-9.0; and 50 mM sodium carbonate-sodium hydrogen carbonate buffer solution with pH of 9.0-11.0. Experiments were repeated thrice. […] Relative enzyme activities in FIG. 3 are relative enzyme activities, which are obtained by: determining enzyme activities at different pH values, and correspondingly converting the enzyme activity values at other pH values on the basis that the highest value at pH 6.0 is 100%.

The target is the same in series [6]. The series can be described thus: Determination of the optimal reaction temperature of D-lactate dehydrogenases LdhTi. The class given is biochemical. The note with it: 20 mM pyruvic acid, 0.2 mM NADH, 20 mM phosphate buffer pH 7.0, 30° C. to 100° C., FIG. 4. As to the method:
An enzyme activity determination method is to determine change in NADH at ultraviolet wavelength of 340 nm, and one enzyme activity unit is defined as the enzyme amount needed for oxidizing 1 μmoL of NADH in one minute. Conditions for determination of the optimal reaction temperature of D-lactate dehydrogenases were as follows: 20 mM pyruvic acid as a substrate, 0.2 mM NADH as a coenzyme and 20 mM phosphate buffer solution (pH 7.0) system are adopted; and enzyme activities from 30° C. to 100° C. were respectively determined, and experiments were repeated thrice. […] Relative enzyme activities in FIG. 4 are relative enzyme activities, which are obtained by: determining enzyme activities at different temperature conditions, and correspondingly converting the enzyme activity values at other temperature conditions on the basis that the highest value at 70° C. is 100%.

As for `C[C@H](O)C(=O)O` [L-lactic Acid, L-lactic acid], the “whether LdhTi catalyzes the substrate (in words)” value in series [1] is on record as “no activity”.

On to `C[C@@H](O)C(=O)O` [D-lactic Acid, D-lactic acid], for which the “whether LdhTi catalyzes the substrate (in words)” value in series [1] is listed as “can catalyze”.

With `CC(=O)C(=O)O` [Pyruvic Acid, pyruvic acid], in series [1], the “whether LdhTi catalyzes the substrate (in words)” value is recorded as “can catalyze”. In series [1] (compared among the tested substrates), the “catalytic efficiency of LdhTi for the substrate (in words)” value is “highest catalytic efficiency”.

On to `O=C(O)CC(=O)C(=O)O` [Oxaloacetic Acid, oxaloacetic acid], for which, in series [1], the “whether LdhTi catalyzes the substrate (in words)” value is recorded as “can catalyze”, the Km was 1320 ± 50 µM and the kcat is 4.473 ± 0.0983 s⁻¹.

On to `O=CC(=O)O` [Glyoxylic Acid, glyoxylic acid], for which, in series [1], the “whether LdhTi catalyzes the substrate (in words)” value is “can catalyze”, the Km came to 1760 ± 80 µM and the kcat amounted to 2.297 ± 0.0517 s⁻¹.

Regarding `O=C(O)C(O)CO` (centres unmarked) [Glyceric Acid, glyceric acid], the “whether LdhTi catalyzes the substrate (in words)” value in series [1] is reported as “no activity”.

In the case of `O=C(O)C(=O)Cc1ccccc1` [Phenylpyruvic Acid, phenylpyruvic acid], the “whether LdhTi catalyzes the substrate (in words)” value in series [1] was “can catalyze”.

B1: D-lactate dehydrogenases LdhTi (Thermodesulfatator indicus DSM 15286) (protein)
chain: MKVIFFSMHPYEEEFLGPILPSDWDVEMTPDFLDETTVEKAKGAQVVSLFVSDKADGPVLEALHSYGVGLLALRSAGYDHIDIETAKRLGIKVVNVPAYSPHAIADHTLAIMLALIRRLHRAHDKVRLGDFDLDGLMGFDLNGKVAGVIGLGKIGRLVATRLKAFGCKVLGYDPYIQPEIVENVDLDTLITQADIISIHCPLTRENFHMFNEETFKRMKPGAILVNTARGGLIDTKALLEALKSGKLGGAALDVYEYERGLFFKNHQKEGIKDPYLAQLLGLANVVLTGHQAFLTREAVKNIEETTVENILEWQKNPQAKLKNEI
For the molecule B1, in series [2], the Km came to 5410 ± 280 µM, the kcat turned out to be 0.105 ± 0.005 s⁻¹ and the kcat/Km is 19.3 ± 0.5 M⁻¹ s⁻¹. Also, in series [3], the Km turned out to be 50 ± 10 µM, the kcat stood at 1.08 ± 0.0283 s⁻¹ and the kcat/Km is 20700 ± 667 M⁻¹ s⁻¹. Also, in series [4], the Km stood at 4580 ± 240 µM, the kcat came to 0.295 s⁻¹ and the kcat/Km was 64.3 M⁻¹ s⁻¹.

B2: LdhTi: D-lactate dehydrogenase from Thermodesulfatator indicus DSM 15286, amino acid sequence SEQ ID No. 1, expressed in E. coli and purified (protein)
chain: B1 chain
modifications: Thermodesulfatator indicus DSM 15286
For the molecule B2, the “optimal reaction pH value” in series [5] worked out at 6.0. Further, in series [6], the optimal reaction temperature was 70 °C.

Usually Km stands for the concentration of substrate that gives half-maximal velocity. Broadly, the kcat is the maximal rate divided by the concentration of active sites. The term kcat/Km denotes the turnover number divided by the Michaelis constant.

For the origin of these results see patent US11225675B2, “D-lactate dehydrogenase, engineered strain containing D-lactate dehydrogenase and construction method and use of engineered strain” (Shanghai Jiao Tong University, priority 2017, dated 2022).
